These results are taken from ChEMBL document CHEMBL1201862, “PubChem BioAssay data set” (2004).

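All cell lines were grown in 96-well plates and treated with compound for 48 hours. GI50 marks 50% less growth.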 Activity calls are given as the source filed them. No stated cut-off is given here; in the data, active = GI50 up to about 1.1 µM and inactive = higher. Where a SMILES comes first, the peptide text is derived from it. [ ]: non-standard residue; d: D form. The star is where a group is joined. NMeAc5c = CNC1(C(=O)O)CCCC1; Boc = CC(C)(C)OC(=O)*; OBn = c1ccc(CO*)cc1 Where only a bound is given, the exact number is not on record here.

Holding throughout (test): inhibition of tumour cell growth, NCI panel, 48 h
For assay [1], the system named is HOP-92.
Assay [2] relates to OVCAR-5.
The test system of assay [3] is SK-MEL-2.
In assay [4] the test system is COLO 205.
Assay [5] has as its system DU-145.
The subject of assay [6] is UACC-257.
Assay [7] deals with HOP-62.
Assay [8] has as its system SR.
Assay [9] has as its system HCT-15.
For assay [10], the system named is SF-295.
The subject of assay [11] is K562.
In assay [12] the test system is MDA-MB-435.
Assay [13] concerns TK-10.
Assay [14] deals with NCI-H522.
Assay [15] deals with OVCAR-3.
In assay [16] the test system is T47D.
The test system of assay [17] is OVCAR-4.
For assay [18], the system named is PC-3.
Assay [19] relates to SW-620.
For assay [20], the system named is CAKI-1.

As to `Cc1c2ccccc2c(CSC(=N)N)c2ccccc12`, the GI50 in assay [1] is 0.29 µM (active); in [2], 0.326 µM (active); in assay [3], 0.192 µM (active); in [4], 0.14 µM (active); in [5] it was 0.084 µM (active); in assay [6], 0.187 µM (active). Further, the GI50 in [7] is 0.241 µM (active); in [8], 0.0194 µM (active); in assay [9] it was 0.269 µM; in [10] it was 0.271 µM (active); in assay [11], 0.2 µM (active); in assay [12], 0.181 µM (active). The GI50 is 0.222 µM (active) in [13]; 0.0348 µM (active) in assay [14]; 0.264 µM (active) in assay [15]; 0.535 µM (active) in [16]; 0.174 µM (active) in [17]; 0.23 µM (active) in assay [18]. In assay [19], the GI50 is 0.121 µM (active).

`NC(Cc1ccccc1)C(=O)N[C@H]1c2ccsc2/C(=N/O)[C@H]1O` (stereo partly specified): the GI50 in assay [1], in assay [2], in assay [3], in [4], in assay [5] and in assay [6] was > 100 µM (inactive) each time. Further, the GI50 in assay [7] is > 100 µM (inactive); in assay [8], > 100 µM (inactive); in assay [9], above 100 µM; in [10], > 100 µM (inactive); in assay [11], > 100 µM (inactive); in assay [12], > 100 µM (inactive). Also, the GI50 in assay [13], in [15], in assay [16], in assay [17], in assay [18] and in assay [20] was > 100 µM (inactive) throughout. The GI50 in assay [19] was > 100 µM (inactive).

Regarding `Oc1ccc(/C=C/c2cccc(/C=C/c3ccc(O)c(O)c3)n2)cc1O`, the GI50 in assay [1] is 11.2 µM (inactive); in [2] it was 9.95 µM (inactive); in assay [3], 11.7 µM (inactive); in assay [4], 14.2 µM (inactive); in [5], 3.77 µM (inactive); in assay [6], 13.9 µM (inactive). Further, the GI50 was 22.2 µM (inactive) in assay [7]; 3.49 µM (inactive) in assay [8]; 22.7 µM in assay [9]; 18.6 µM (inactive) in [10]; 3.86 µM (inactive) in assay [11]; 10.7 µM (inactive) in assay [12]. Moreover, the GI50 in assay [13] was 11.4 µM (inactive); in assay [15], 4.05 µM (inactive); in [16], 3.4 µM (inactive); in assay [17], 6.04 µM (inactive); in assay [18], 17.5 µM (inactive); in [20], 13.8 µM (inactive). In addition, the GI50 in [19] is 7.05 µM (inactive).

Consider `CCCCNC(=O)Cn1c2ccc(Br)cc2c2nc3ccccc3nc21`, for which the GI50 in assay [1], in assay [2], in assay [3], in [4], in assay [5] and in assay [6] was > 100 µM (inactive) each time. Further, the GI50 in assay [7] is 58.1 µM (inactive); in [8], 0.589 µM (active); in [10], > 100 µM (inactive); in assay [11] it was > 100 µM (inactive); in [12] it was > 100 µM (inactive); in assay [13] it was > 100 µM (inactive). Also, the GI50 in [15] is > 100 µM (inactive); in assay [16], 93.8 µM (inactive); in assay [18], > 100 µM (inactive); in [20] it was 57.3 µM (inactive); in [19], > 100 µM (inactive).

Take `S=c1sc2c(s1)SCCCCSCCCCSc1sc(=S)sc1SCCCCSCCCCS2`: the GI50 in assay [2], in assay [3], in assay [4], in [5], in [6] and in assay [7] was > 100 µM (inactive) each time. Also, the GI50 in assay [8] was > 100 µM (inactive); in assay [9], above 100 µM; in assay [10], > 100 µM (inactive); in assay [11], > 100 µM (inactive); in [12], > 100 µM (inactive); in assay [13], > 100 µM (inactive). Also, the GI50 in assay [14], in [15], in assay [16], in assay [18], in assay [20] and in assay [19] was > 100 µM (inactive) in each case.

Regarding `ClC1(Cl)C2CCOC21n1cnc2ccccc21` (stereo unspecified), the GI50 in [2], in assay [3], in assay [4], in assay [5], in [7] and in [8] was > 100 µM (inactive) throughout. The GI50 in assay [9] is above 100 µM; in assay [10] it was > 100 µM (inactive); in assay [11] it was > 100 µM (inactive); in [12] it was > 100 µM (inactive); in [14], 14.6 µM (inactive); in assay [15], > 100 µM (inactive). Further, the GI50 in [16] is > 100 µM (inactive); in assay [17], 67.3 µM (inactive); in assay [18], > 100 µM (inactive); in [20], > 100 µM (inactive); in [19], 7.21 µM (inactive).

For `CC(C)(C)OC(=O)N1C(=O)C2CCCC21` (stereo unspecified), the GI50 in [1], in assay [2], in [3], in [4], in assay [5] and in [6] was > 100 µM (inactive) in each case. The GI50 in assay [7] is > 100 µM (inactive); in [8] it was > 100 µM (inactive); in assay [9], above 100 µM; in assay [12], > 100 µM (inactive); in [15], > 100 µM (inactive); in assay [16], > 100 µM (inactive). In addition, the GI50 in assay [17], in [18] and in [19] was > 100 µM (inactive) in each case.

For the molecule `CCOC(=O)c1c(-c2ccc(Cl)cc2)c(C#N)c(=S)n(C2OC(CO)C(O)C(O)C2O)c1-c1ccccc1` (stereo unspecified), the GI50 was 18.9 µM (inactive) in [1]; 21.8 µM (inactive) in [2]; 24.1 µM (inactive) in assay [3]; 30.1 µM (inactive) in assay [4]; 27.2 µM (inactive) in assay [5]; 27.5 µM (inactive) in assay [6]. In addition, the GI50 in assay [7] was 20.3 µM (inactive); in assay [8], 33.1 µM (inactive); in assay [9], 29.9 µM; in [10], 20.4 µM (inactive); in assay [11], 19.5 µM (inactive); in assay [12], 21.3 µM (inactive). Moreover, the GI50 in assay [13] is 33.8 µM (inactive); in assay [15], 21.3 µM (inactive); in assay [16] it was 23.2 µM (inactive); in [17], 33.5 µM (inactive); in assay [18] it was 19.9 µM (inactive); in assay [20] it was 29.8 µM (inactive). Further, in assay [19], the GI50 is 18.5 µM (inactive).

Regarding `O=C1CC(c2ccccc2Cl)C2(C(=O)NC(=O)NC2=O)C(c2ccccc2Cl)C1` (stereo unspecified), the GI50 is > 100 µM (inactive) in assay [1]; > 100 µM (inactive) in assay [2]; 81.1 µM (inactive) in [3]; 39.2 µM (inactive) in assay [5]; > 100 µM (inactive) in assay [6]; > 100 µM (inactive) in [7]. For the same molecule, the GI50 was 58.1 µM (inactive) in assay [8]; above 100 µM in [9]; > 100 µM (inactive) in assay [10]; > 100 µM (inactive) in [11]; 52.6 µM (inactive) in assay [12]; > 100 µM (inactive) in assay [13]. In addition, the GI50 in [14] is > 100 µM (inactive); in assay [15], 32.6 µM (inactive); in [16], 18.8 µM (inactive); in assay [17] it was > 100 µM (inactive); in assay [18], > 100 µM (inactive); in assay [19], > 100 µM (inactive).

As to `CN(C(=O)C(Cc1ccccc1)NC(=O)OC(C)(C)C)C1(C(=O)NC(Cc2ccccc2)C(=O)OCc2ccccc2)CCCC1` (stereo not drawn) (Boc-Phe-[NMeAc5c]-Phe-OBn; configuration not given here), the GI50 in assay [1] is 53.7 µM (inactive); in [2] it was > 100 µM (inactive); in [3], 44.3 µM (inactive); in assay [4], 22.3 µM (inactive); in assay [5], 58.3 µM (inactive); in [6], 57.3 µM (inactive). In addition, the GI50 in assay [7] was 38.5 µM (inactive); in assay [8], 22.2 µM (inactive); in assay [9], 28.7 µM; in [10], 42.6 µM (inactive); in [11], 29.8 µM (inactive); in assay [12] it was 37.3 µM (inactive). Also, the GI50 in assay [13] was 34.8 µM (inactive); in assay [15], 31.8 µM (inactive); in assay [16] it was 75.5 µM (inactive); in assay [17] it was > 100 µM (inactive); in [18], 28.4 µM (inactive); in [19], 39.7 µM (inactive).

For the molecule `Oc1ccc(/C=C/c2cc(O)cc(O)c2)cc1` [RESVERATROL], the GI50 in assay [1] was > 100 µM (inactive); in assay [2], > 100 µM (inactive); in assay [3] it was 86.3 µM (inactive); in [5] it was 12.1 µM (inactive); in assay [6], > 100 µM (inactive); in assay [7] it was 92 µM (inactive). The GI50 in [8] was 53.1 µM (inactive); in assay [9], above 100 µM; in assay [10], 44 µM (inactive); in assay [12] it was 70.1 µM (inactive); in [13], > 100 µM (inactive); in [15] it was > 100 µM (inactive). In addition, the GI50 is 8.65 µM (inactive) in [16]; > 100 µM (inactive) in [17]; 42.4 µM (inactive) in [18]; 42.2 µM (inactive) in assay [20]; > 100 µM (inactive) in assay [19].
